From publication PMC8391104, “Molecular mechanism of Mad1 kinetochore targeting by phosphorylated Bub1” (EMBO Reports, 2021)
Changes are numbered by the printed parent chain. Where a SMILES comes first, the peptide text is derived from it. [ ]: non-standard residue; d: D form. pT = C[C@@H](OP(=O)(O)O)[C@H](N)C(=O)O; pS = N[C@@H](COP(=O)(O)O)C(=O)O

Tests used:
15N-labelled Mad1^CTD = experiment: NMR titration (1H,15N HSQC) of Bub1^CD1 peptides into 15N-labelled Mad1^CTD; type: binding, human; conditions: 298K, 50 mM HEPES pH 7.0, 100 mM NaCl, 2 mM TCEP, 0.02% NaN3
Experimental: Isotopically labelled Mad1^CTD was expressed in M9 minimal media (6 g/l Na2HPO4, 3 g/l KH2PO4, 0.5 g/l NaCl) supplemented with 1.7 g/l yeast nitrogen base without NH4Cl and amino acids (Sigma Y1251). 1 g/l ^15NH4Cl and 4 g/l unlabelled glucose were supplemented for ^15N labelling. For the deuteration of nonlabile sidechain protons, cells were adapted for growth in 10, 44 and 78% deuterated media on agar plates before they were grown in large cultures supplemented with 1 g/l ^15NH4Cl and 4 g/l ^2H^13C‐glucose in 99% D2O (Sigma). Prior to NMR experiments, isotopically labelled Mad1^CTD and Bub1^CD1 peptide were dialysed into 25 mM HEPES, pH 7.0, 100 mM NaCl, 1 mM TCEP.
^1H‐detected experiments were performed on 600 and 800 MHz Avance III spectrometers, both equipped with triple resonance TCI CryoProbes (Bruker). ^31P 1D NMR spectra were recorded on a 500 MHz Avance II spectrometer equipped with a broadband BBO cryoprobe (Bruker). All spectra were collected in 50 mM HEPES, pH 7.0, 100 mM NaCl, 2 mM TCEP, 0.02% NaN3 at 298K. […] Secondary chemical shifts were calculated from the differences between observed Cα/Cβ chemical shifts and Cα/Cβ chemical shifts for random coils (Kjaergaard & Poulsen, [2011]). […]

[1] = design: method as in Zhang et al, 2017; conditions: ref Zhang et al, 2017; cited from earlier work
[2] = biological target: T1, human Mad1^CTD (WT) homodimer (Homo sapiens, UniProt Q9Y6D9); experiment: ITC of Bub1^CD1 peptides binding to wild-type Mad1^CTD; conditions: for binding to Mad1^CTD by ITC, in words: pH 7.5, Mad1^CTD WT
T1 construct: human Mad1^CTD homodimer (residues 597–718); double Strep His6-tag with TEV site (N, cleaved yes); made in house; host or cells: E. coli Rosetta 2 (DE3)
T1 sequence (Q9Y6D9 597-718): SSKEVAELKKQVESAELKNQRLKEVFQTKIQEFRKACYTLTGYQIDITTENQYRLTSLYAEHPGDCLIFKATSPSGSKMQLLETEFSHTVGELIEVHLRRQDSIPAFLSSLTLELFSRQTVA
Source text: (§1) The coding region of Mad1^597–719 was cloned by USER® (NEB) into a modified pRSFDuet‐1 vector (71341‐3, Sigma‐Aldrich) with an N‐terminal double Strep His6‐tag, followed by a tobacco etch virus (TEV) protease cleavage site (Demple & Linn, [1982]; Bitinaite et al, [1992]). Mad1 mutants were generated using the QuikChange™ Lightning Site‐Directed Mutagenesis Kit (Agilent), developed by Stratagene Inc. (La Jolla, CA) (Nøhr & Kristiansen, [2003]). Mad1 constructs were transformed into Rosetta™ 2 (DE3) Singles™ Competent Cells (71400, Novagen) for expression. Expression was induced with 0.5 mM IPTG and grown overnight at 18°C. Cells were lysed in 25 mM HEPES pH 8.1, 250 mM NaCl, 2 mM DTT, 5% glycerol, 2 mM EDTA supplemented with lysozyme, and Complete™ EDTA‐free protease inhibitors (Roche). Proteins were purified over a Strep‐Tactin Superflow Plus column (QIAGEN) and cleaved with TEV protease overnight at 4°C. The cleaved Mad1^CTD was then diluted to 50 mM NaCl, purified over an anion exchange (Resource Q, GE Healthcare) column, followed by size exclusion chromatography using a Superdex 75 Increase column (GE Healthcare). Mad1^CTD was concentrated to 35 mg/ml in a buffer of 20 mM HEPES pH 7.5, 100 mM NaCl and 1 mM TCEP.
Bub1^CD1 peptides were ordered from Designer Bioscience UK, at 95% purity. The full peptide sequence used in this study was (W)KVQP{pS}P{pT}VHTKEALGFIMNMFQAPTS. (W) = peptide with an additional N‐terminal tryptophan was used to confirm peptide concentration in stoichiometry studies.
Isothermal titration calorimetry (ITC) was performed using an Auto‐iTC200 instrument (Malvern Instruments, Malvern, UK) at 20°C. Mad1^CTD and Bub1^CD1 peptide mutants were dialysed into 20 mM HEPES pH 7.5, 100 mM NaCl, 1 mM TCEP. For each titration between 30–100 µM of Mad1 was pipetted into the calorimeter cell. The Bub1^CD1 peptides at 0.3–1.5 mM were titrated into the cell consisting of one 0.5 µl injection followed by 19 injections of 2 µl each. The changes in the heat released were integrated over the entire titration and fitted to a single‐site binding model using the MicroCal PEAQ‐ITC Analysis Software 1.0.0.1258 (Malvern Instruments). Titrations were performed in triplicate. Calculations for stoichiometry were based on the molar concentrations of dimeric Mad1^CTD.

[3] = 1H 1D NMR of free Bub1^CD1 peptides (conformation); type: physicochemical; conditions: narrow dispersion of amide peaks, not bound to Mad1
Experimental: ^1H‐detected experiments were performed on 600 and 800 MHz Avance III spectrometers, both equipped with triple resonance TCI CryoProbes (Bruker). ^31P 1D NMR spectra were recorded on a 500 MHz Avance II spectrometer equipped with a broadband BBO cryoprobe (Bruker). All spectra were collected in 50 mM HEPES, pH 7.0, 100 mM NaCl, 2 mM TCEP, 0.02% NaN3 at 298K. Standard ^2H decoupled TROSY‐based triple resonance experiments were used for backbone resonance assignments: HNCO, HN(CA)CO, HNCA, HN(CO)CA, HNCACB, HN(CO)CACB and HN(COCA)NNH (Pervushin, [2020]). Backbone datasets were collected with 20–25% non‐uniform sampling and reconstructed using compressed sensing in MddNMR (Mayzel et al, [2014]). Topspin 3.6 (Bruker) was used for processing and NMRFAM‐Sparky 1.47 for data analysis (Lee et al, [2015]). Backbone assignments were obtained in Mars (Jung & Zweckstetter, [2004]). Secondary chemical shifts were calculated from the differences between observed Cα/Cβ chemical shifts and Cα/Cβ chemical shifts for random coils (Kjaergaard & Poulsen, [2011]). […]

Mad1^CTD R630A = biological target: T2, Mad1^CTD R630A (Homo sapiens, UniProt Q9Y6D9, R630A); experiment: ITC, Mad1^CTD R630A; type: binding; conditions: 20°C, pH 7.5, R630A, average of at least three experiments ± SD
T2 construct: human Mad1^CTD homodimer (residues 597–718); double Strep His6-tag with TEV site (N, cleaved yes); made in house; host or cells: E. coli Rosetta 2 (DE3)
T2 sequence (Q9Y6D9 597-718 R630A limits assumed): T1 sequence (Q9Y6D9 597-718) with R34A
Source text: as §1
(§2) Isothermal titration calorimetry (ITC) was performed using an Auto‐iTC200 instrument (Malvern Instruments, Malvern, UK) at 20°C. […]

Peptide solubility = type: physicochemical; conditions: Hepes buffer, aqueous buffer; 20 mM Hepes, pH 7.5, 100 mM NaCl, 1 mM TCEP, without DMSO; read-out: solubility
Experimental: Our ITC and sedimentation equilibrium experiments to measure the stoichiometry of the Mad1^CTD‐Bub1^CD1 interaction were performed with concentrations of Mad1 at 100 µM or lower, and titrating Bub1 until a twofold‐fourfold molar excess was obtained. However, our ^31P NMR experiments were conducted with around 0.25 to 0.5 mM of each, and still only one binding event was detected. […] DMSO interfered with ITC enthalpy changes and the NMR signal from DMSO obscured the protein peaks. In contrast, our Mad1^CTD‐Bub1^CD1 crystal structure was obtained through co‐crystallization of Mad1^CTD at a final concentration of 0.35 mM and Bub1^CD1 at 2.5 mM in 5% DMSO. The use of millimolar concentrations of peptide, and the presence of DMSO and isopropanol, required for Mad1^CTD‐Bub1^CD1 crystallization, may explain the association of a second peptide in the crystallized complex. […]
which are affected are already mapped out in Fig 5B, and this can be tracked across Bub1CD1 […]
We thank the reviewer for their positive and constructive comments.
1) On page 2, the first line of the third paragraph, Msp1 should be Mps1.
Response: Thank you, we have corrected this error.
2) Please provide a figure to show the omit map (2Fo−Fc map) for the BUB1 CD1 peptide.
Response: We have created a 2Fo-Fc omit map and included it in Fig EV2D and updated the figure legend accordingly. […]
2) p. 5, near bottom. The authors state that the singly phosphorylated Bub1 peptide (on Thr-461) is less soluble than the double phosphorylated peptide (also phosphorylated on Ser-459), which may explain previous reports that P-Ser-459 contributes to binding Mad1-CTD. It would be helpful if the authors could quantify this reduced solubility.
Response: We realise that our comment on the reduced solubility of the singly phosphorylated pT461 peptide is likely confusing, so we have removed this comment.
In terms of quantifying the reduced solubility, we observed an approximately 2-fold reduction of the solubility of the singly phosphorylated peptide. […]

[4] = biological target: T3, Mad1^CTD QRRI** (Q627A, R650A, I643A, R630A) (Homo sapiens, UniProt Q9Y6D9, I643A/Q627A/R630A/R650A); experiment: ITC, Mad1^CTD QRRI** quadruple mutant; type: binding; conditions: 20°C, pH 7.5, QRRI**, average of at least three experiments ± SD
T3 construct: human Mad1^CTD homodimer (residues 597–718); double Strep His6-tag with TEV site (N, cleaved yes); made in house; host or cells: E. coli Rosetta 2 (DE3)
T3 sequence (Q9Y6D9 597-718 Q627A/R630A/I643A/R650A limits assumed): T1 sequence (Q9Y6D9 597-718) with Q31A, R34A, I47A, R54A
Source text: as §1, §2

Mad1^CTD Q627A = biological target: T4, Mad1^CTD Q627A (Homo sapiens, UniProt Q9Y6D9, Q627A); experiment: ITC, Mad1^CTD Q627A; type: binding; conditions: 20°C, pH 7.5, Q627A, average of at least three experiments ± SD
T4 construct: human Mad1^CTD homodimer (residues 597–718); double Strep His6-tag with TEV site (N, cleaved yes); made in house; host or cells: E. coli Rosetta 2 (DE3)
T4 sequence (Q9Y6D9 597-718 Q627A limits assumed): T1 sequence (Q9Y6D9 597-718) with Q31A
Source text: as §1, §2

Mad1^CTD K619A = biological target: T5, Mad1^CTD K619A (Homo sapiens, UniProt Q9Y6D9, K619A); experiment: ITC, Mad1^CTD K619A; type: binding; conditions: 20°C, pH 7.5, K619A, average of at least three experiments ± SD
T5 construct: human Mad1^CTD homodimer (residues 597–718); double Strep His6-tag with TEV site (N, cleaved yes); made in house; host or cells: E. coli Rosetta 2 (DE3)
T5 sequence (Q9Y6D9 597-718 K619A limits assumed): T1 sequence (Q9Y6D9 597-718) with K23A
Source text: as §1, §2

Mad1^CTD K614A = biological target: T6, Mad1^CTD K614A (Homo sapiens, UniProt Q9Y6D9, K614A); experiment: ITC, Mad1^CTD K614A; type: binding; conditions: 20°C, pH 7.5, K614A, average of at least three experiments ± SD
T6 construct: human Mad1^CTD homodimer (residues 597–718); double Strep His6-tag with TEV site (N, cleaved yes); made in house; host or cells: E. coli Rosetta 2 (DE3)
T6 sequence (Q9Y6D9 597-718 K614A limits assumed): T1 sequence (Q9Y6D9 597-718) with K18A
Source text: as §1, §2

| binding by NMR titration, in words (15N-labelled Mad1^CTD) | binding to Mad1^CTD by ITC, in words ([2]; 20°C) | binding to Mad1^CTD by ITC, in words ([2]; 20°C, listed as unphosphorylated Bub1^CD1 peptide) | Kd (Mad1^CTD R630A) [µM] | solubility (Peptide solubility) [µM] | Kd ([2]; 20°C, 20 mM HEPES pH 7.5, 100 mM NaCl, 1 mM TCEP, 30–100 µM Mad1 in cell, 0.3–1.5 mM peptide, single-site model, average of at least three experiments ± SD) [µM] | KD at lowered peptide concentration ([2]; lowered concentration of doubly phosphorylated peptide (usual: 100 µM Mad1CTD, 1 mM peptide)) | Kd [4] [µM] | Kd (Mad1^CTD Q627A) [µM] | Kd (Mad1^CTD K619A) [µM] | Kd (Mad1^CTD K614A) [µM] | Compound | conformation of unbound peptide by circular dichroism, in words [1] | conformation of free peptide, in words [3] |
| --- | --- | --- | --- | --- | --- | --- | --- | --- | --- | --- | --- | --- | --- |
| failed to reveal Bub1‐Mad1 interactions | no binding | complete absence of interactions | – | – | – | – | – | – | – | – | CD1: non‐phosphorylated Bub1^CD1 peptide (KVQPSPTVHTKEALGFIMNMFQAPTS; phosphoserine at 459, phosphothreonine at 461) | unstructured but might have helical propensity that is increased with Thr461 phosphorylation | unstructured when not bound to Mad1 |
| – | – | – | 10.1 ± 1.3 | ≥ 1500 | 2.7 ± 1.2 | same KD | 24.9 ± 1.3 | 2.4 ± 0.4 | 10.1 ± 5.4 | 2.4 ± 0.43 | CC[C@H](C)[C@H](NC(=O)[C@H](Cc1ccccc1)NC(=O)CNC(=O)[C@H](CC(C)C)NC(=O)[C@H](C)NC(=O)[C@H](CCC(=O)O)NC(=O)[C@H](CCCCN)NC(=O)[C@@H](NC(=O)[C@H](Cc1c[nH]cn1)NC(=O)[C@@H](NC(=O)[C@@H](NC(=O)[C@@H]1CCCN1C(=O)[C@H](COP(=O)(O)O)NC(=O)[C@@H]1CCCN1C(=O)[C@H](CCC(N)=O)NC(=O)[C@@H](NC(=O)[C@@H](N)CCCCN)C(C)C)[C@@H](C)OP(=O)(O)O)C(C)C)[C@@H](C)O)C(=O)N[C@@H](CCSC)C(=O)N[C@@H](CC(N)=O)C(=O)N[C@@H](CCSC)C(=O)N[C@@H](Cc1ccccc1)C(=O)N[C@@H](CCC(N)=O)C(=O)N[C@@H](C)C(=O)N1CCC[C@H]1C(=O)N[C@H](C(=O)N[C@@H](CO)C(=O)O)[C@@H](C)O [pSpT CD1] (H-KVQP[pS]P[pT]VHTKEALGFIMNMFQAPTS-OH) | – | – |
